Measured values: ChEMBL document CHEMBL3885861, “Open TG-GATES”

Species on record: Rattus norvegicus
Assay: Open TG-GATES - Regimen: Daily Repeat
Assay type: toxicity, organism-based, Sprague-Dawley
Set-up: regimen Daily Repeat, gender Male, age 6 weeks
Conditions: in vivo, po, 0 mg/kg, route gavage, dose level Control; for APTT / Bas / Eos / Fbg / Hb / Ht / Lym / MCH / MCHC / MCV / Mono / Neu / PT / Plat / RBC / Ret / WBC: tissue Blood; for KIDNEY_L / KIDNEY_R / KIDNEY_TOTAL: tissue Kidney; for LIVER: tissue Liver; for A/G / ALP / ALT / AST / BUN / CRE / Ca / Cl / DBIL / GLC / IP / K / LDH / Na / PL / RALB / TBIL / TC / TG / TP / gamma-GTP: tissue Plasma

`CCSCC[C@H](N)C(=O)O` [ETHIONINE] was tested, and the TERMINAL_BW (72 h, time 3 day) was 234.6 g, the APTT (72 h, time 3 day) was 19.8 s and the Bas (72 h, time 3 day) was 0%. The Eos (72 h, time 3 day) was 1%, the Fbg (72 h, time 3 day) was 226.8 mg/dL and the Hb (72 h, time 3 day) was 13 g/dL. For the same compound, the Ht (72 h, time 3 day) was 38.3%, the Lym (72 h, time 3 day) was 78.2% and the MCH (72 h, time 3 day) was 21 pg. For the same compound, the MCHC (72 h, time 3 day) was 34%, the MCV (72 h, time 3 day) was 61.7 fL and the Mono (72 h, time 3 day) was 3%. The Neu (72 h, time 3 day) was 17.2%, the PT (72 h, time 3 day) was 12 s and the Plat (72 h, time 3 day) was 126.2 x10_4/uL. It also gave an RBC (72 h, time 3 day) of 621.6 x10_4/ul, a Ret (72 h, time 3 day) of 5.9% and a WBC (72 h, time 3 day) of 113.1 x10_2/uL. It also gave a KIDNEY_L (72 h, time 3 day) of 1.1 g, a KIDNEY_R (72 h, time 3 day) of 1.1 g and a KIDNEY_TOTAL (72 h, time 3 day) of 2.1 g. The LIVER (72 h, time 3 day) was 10.9 g, the A/G (72 h, time 3 day) was 1.6 and the ALP (72 h, time 3 day) was 977.6 IU/L. It also gave an ALT (72 h, time 3 day) of 35.6 IU/L, an AST (72 h, time 3 day) of 68 IU/L and a BUN (72 h, time 3 day) of 13.8 mg/dL. The CRE (72 h, time 3 day) was 0.4 mg/dL, the Ca (72 h, time 3 day) was 10.8 mg/dL and the Cl (72 h, time 3 day) was 101 meq/L. For the same compound, the DBIL (72 h, time 3 day) was 0.08 mg/dL, the GLC (72 h, time 3 day) was 210.2 mg/dL and the IP (72 h, time 3 day) was 7.8 mg/dL. For the same compound, the K (72 h, time 3 day) was 3.9 meq/L, the LDH (72 h, time 3 day) was 174.8 IU/L and the Na (72 h, time 3 day) was 140.4 meq/L. The PL (72 h, time 3 day) was 149 mg/dL, the RALB (72 h, time 3 day) was 3.4 g/dL and the TBIL (72 h, time 3 day) was 0.1 mg/dL. It also gave a TC (72 h, time 3 day) of 74 mg/dL, a TG (72 h, time 3 day) of 99.2 mg/dL and a TP (72 h, time 3 day) of 5.5 g/dL. It also gave a gamma-GTP (72 h, time 3 day) of 1 IU/L, a TERMINAL_BW ([…], time 7 day) of 269.1 g and a TERMINAL_BW ([…], time 14 day) of 307.1 g. The TERMINAL_BW ([…], time 28 day) was 407.1 g, the APTT ([…], time 7 day) was 20.5 s and the Bas ([…], time 7 day) was 0%. It also gave an Eos ([…], time 7 day) of 0.8%, a Fbg ([…], time 7 day) of 222.8 mg/dL and a Hb ([…], time 7 day) of 14 g/dL. It also gave a Ht ([…], time 7 day) of 41.2%, a Lym ([…], time 7 day) of 79% and an MCH ([…], time 7 day) of 21.1 pg. It also gave an MCHC ([…], time 7 day) of 34%, an MCV ([…], time 7 day) of 61.8 fL and a Mono ([…], time 7 day) of 2.8%. The Neu ([…], time 7 day) was 16.6%, the PT ([…], time 7 day) was 12.1 s and the Plat ([…], time 7 day) was 123.3 x10_4/uL. It also gave an RBC ([…], time 7 day) of 666 x10_4/ul, a Ret ([…], time 7 day) of 5.6% and a WBC ([…], time 7 day) of 125.1 x10_2/uL. The APTT ([…], time 14 day) was 18.9 s, the Bas ([…], time 14 day) was 0% and the Eos ([…], time 14 day) was 1%. For the same compound, the Fbg ([…], time 14 day) was 213.6 mg/dL, the Hb ([…], time 14 day) was 14.5 g/dL and the Ht ([…], time 14 day) was 42.1%. It also gave a Lym ([…], time 14 day) of 77.2%, an MCH ([…], time 14 day) of 20.3 pg and an MCHC ([…], time 14 day) of 34.5%. The MCV ([…], time 14 day) was 58.9 fL, the Mono ([…], time 14 day) was 2.4% and the Neu ([…], time 14 day) was 18.8%. For the same compound, the PT ([…], time 14 day) was 11.9 s, the Plat ([…], time 14 day) was 114.5 x10_4/uL and the RBC ([…], time 14 day) was 714.8 x10_4/ul. It also gave a Ret ([…], time 14 day) of 3.8%, a WBC ([…], time 14 day) of 113.5 x10_2/uL and an APTT ([…], time 28 day) of 20.5 s. For the same compound, the Bas ([…], time 28 day) was 0%, the Eos ([…], time 28 day) was 1% and the Fbg ([…], time 28 day) was 216 mg/dL. The Hb ([…], time 28 day) was 15.3 g/dL, the Ht ([…], time 28 day) was 43.5% and the Lym ([…], time 28 day) was 79.2%. It also gave an MCH ([…], time 28 day) of 19.6 pg, an MCHC ([…], time 28 day) of 35.1% and an MCV ([…], time 28 day) of 55.9 fL. The Mono ([…], time 28 day) was 2%, the Neu ([…], time 28 day) was 16.8% and the PT ([…], time 28 day) was 12.4 s. The Plat ([…], time 28 day) was 113.3 x10_4/uL, the RBC ([…], time 28 day) was 778.4 x10_4/ul and the Ret ([…], time 28 day) was 2.2%. It also gave a WBC ([…], time 28 day) of 104.9 x10_2/uL, a KIDNEY_L ([…], time 7 day) of 1.1 g and a KIDNEY_R ([…], time 7 day) of 1.1 g. It also gave a KIDNEY_TOTAL ([…], time 7 day) of 2.2 g, a KIDNEY_L ([…], time 14 day) of 1.2 g and a KIDNEY_R ([…], time 14 day) of 1.2 g. For the same compound, the KIDNEY_TOTAL ([…], time 14 day) was 2.4 g, the KIDNEY_L ([…], time 28 day) was 1.5 g and the KIDNEY_R ([…], time 28 day) was 1.5 g. It also gave a KIDNEY_TOTAL ([…], time 28 day) of 2.9 g, an LIVER ([…], time 7 day) of 12.6 g and an LIVER ([…], time 14 day) of 13 g. For the same compound, the LIVER ([…], time 28 day) was 16.6 g, the A/G ([…], time 7 day) was 1.5 and the ALP ([…], time 7 day) was 874.2 IU/L. It also gave an ALT ([…], time 7 day) of 34.6 IU/L, an AST ([…], time 7 day) of 62.2 IU/L and a BUN ([…], time 7 day) of 16.8 mg/dL. The CRE ([…], time 7 day) was 0.4 mg/dL, the Ca ([…], time 7 day) was 10.7 mg/dL and the Cl ([…], time 7 day) was 103.2 meq/L. For the same compound, the DBIL ([…], time 7 day) was 0.092 mg/dL, the GLC ([…], time 7 day) was 198 mg/dL and the IP ([…], time 7 day) was 7.6 mg/dL. The K ([…], time 7 day) was 3.8 meq/L, the LDH ([…], time 7 day) was 173.8 IU/L and the Na ([…], time 7 day) was 140.6 meq/L. The PL ([…], time 7 day) was 153 mg/dL, the RALB ([…], time 7 day) was 3.5 g/dL and the TBIL ([…], time 7 day) was 0.2 mg/dL. It also gave a TC ([…], time 7 day) of 70.6 mg/dL, a TG ([…], time 7 day) of 131.8 mg/dL and a TP ([…], time 7 day) of 5.8 g/dL. For the same compound, the gamma-GTP ([…], time 7 day) was 0.8 IU/L, the A/G ([…], time 14 day) was 1.5 and the ALP ([…], time 14 day) was 742.4 IU/L. The ALT ([…], time 14 day) was 34.8 IU/L, the AST ([…], time 14 day) was 60.6 IU/L and the BUN ([…], time 14 day) was 16 mg/dL. It also gave a CRE ([…], time 14 day) of 0.4 mg/dL, a Ca ([…], time 14 day) of 10.6 mg/dL and a Cl ([…], time 14 day) of 102.4 meq/L. The DBIL ([…], time 14 day) was 0.082 mg/dL, the GLC ([…], time 14 day) was 240.8 mg/dL and the IP ([…], time 14 day) was 7.6 mg/dL. It also gave a K ([…], time 14 day) of 3.4 meq/L, an LDH ([…], time 14 day) of 177.2 IU/L and a Na ([…], time 14 day) of 141 meq/L. For the same compound, the PL ([…], time 14 day) was 144.6 mg/dL, the RALB ([…], time 14 day) was 3.5 g/dL and the TBIL ([…], time 14 day) was 0.1 mg/dL. The TC ([…], time 14 day) was 70 mg/dL, the TG ([…], time 14 day) was 125.2 mg/dL and the TP ([…], time 14 day) was 5.8 g/dL. It also gave a gamma-GTP ([…], time 14 day) of 0.8 IU/L, an A/G ([…], time 28 day) of 1.3 and an ALP ([…], time 28 day) of 506.2 IU/L. It also gave an ALT ([…], time 28 day) of 32.2 IU/L, an AST ([…], time 28 day) of 65.2 IU/L and a BUN ([…], time 28 day) of 18.8 mg/dL. The CRE ([…], time 28 day) was 0.5 mg/dL, the Ca ([…], time 28 day) was 10.4 mg/dL and the Cl ([…], time 28 day) was 103 meq/L. The DBIL ([…], time 28 day) was 0.1 mg/dL, the GLC ([…], time 28 day) was 233 mg/dL and the IP ([…], time 28 day) was 7.1 mg/dL. For the same compound, the K ([…], time 28 day) was 3.8 meq/L, the LDH ([…], time 28 day) was 223.6 IU/L and the Na ([…], time 28 day) was 141.2 meq/L. It also gave a PL ([…], time 28 day) of 145.8 mg/dL, an RALB ([…], time 28 day) of 3.4 g/dL and a TBIL ([…], time 28 day) of 0.1 mg/dL. The TC ([…], time 28 day) was 72 mg/dL, the TG ([…], time 28 day) was 115.2 mg/dL and the TP ([…], time 28 day) was 6.1 g/dL. For the same compound, the gamma-GTP ([…], time 28 day) was 0.8 IU/L.
